Key:
[1] = molecular target: Boletopsis leucomelas lectin (BLL); assay: Frontal affinity chromatography (FAC) on immobilized BLL lectin column; type: binding; conditions: for affinity of BLL for pNP glycosides (in words): pNP-sugar chain 5 μM, FIG. 3(A) right
Description: (§1) It is preferable to use the frontal affinity chromatography (FAC) method for measuring the binding constant between lectin and sugar chain.
(§2) […] each of pyridylaminated sugar chains (PA-sugar chains) is continuously poured into two buffered lectin columns at a flow rate of 0.125 ml/min. The PA-sugar chain has been diluted to the concentration (2.5 nM) which is sufficiently lower than the dissociation constant (Kd) of a lectin in a buffer solution for analysis (10 mM Tris-HCl buffer solution (pH 7.4) containing 0.8% NaCl). Elution of the PA-sugar chain from the column is detected with use of a fluorescence detector (with exciting wavelength/fluorescence wavelength: 310 nm/380 nm).
(§3) Then, the binding constant (Ka) between the sugar chain and the lectin is determined from V-V0 and Bt based on the FAC reference equation.
(§4) BLL was dissolved in 0.2M NaHCO3 buffer solution (pH 8.3) containing 0.5M NaCl, and bound with NHS-activated Sepharose (GE Healthcare Bioscience, Uppsala, Sweden) according to the operation manual of the manufacturer. The lectin-Sepharose was suspended in 10 mM Tris-HCl buffer solution (pH 7.4, TBS buffer solution) containing 0.8% NaCl, and filled in a miniature column (+2 mm×10 mm, 31.4 μl). A GSL-II lectin column was prepared in a similar manner.
(§5) A frontal affinity chromatography was carried out with use of an FAC automated analysis system (FAC-1, Shimadzu Corporation). More specifically, the lectin column prepared as described above was inserted in a stainless holder and connected to the FAC-1 system.
(§6) The flow rate and column temperature were kept at 0.125 ml/min and 25 °C, respectively. […]
(§7) Eluates of pNP-sugar chain and PA-sugar chain were monitored by measuring UV (280 nm) and fluorescence (with the exciting wavelength 310 nm and the fluorescence wave length 380 nm). A front end eluate (i.e., V-V0) was measured with respect to a standard oligosaccharide (PA-lactose). In addition, the dissociation constant (Kd) was determined from V-V0 and Bt based on the FAC reference equation. Note that the binding constant Ka is determined by the equation Ka=1/Kd.
(§8) Analysis of the concentration dependency was carried out to measure the effective ligand concentration Bt. […] Next, V-V0 (the delay of the eluted front end) was calculated in accordance with the method developed by Arata (“Application of reinforced frontal affinity chromatography and advanced processing procedure to the study of the binding property of a Caenorhabditis elegans galectin”, J Chromatogr A. 905, 337-43). A Hofstee-type plot ((V-V0) vs. (V-V0) [A]0) was created, and Bt and Kd were respectively determined from the intercept and the slope of the approximate curve. […]

[2] = molecular target: Griffonia simplicifolia lectin II (GSL-II) (Griffonia simplicifolia, UniProt Q41263); assay: Frontal affinity chromatography (FAC) on immobilized GSL-II lectin column; type: binding; conditions: for affinity of GSL-II for pNP glycosides (in words): pNP-sugar chain 5 μM, FIG. 3(A) left
Description: as §1, §2, §3, §4, §5, §6, §7, §8

Chain of Griffonia simplicifolia lectin II (GSL-II) (Q41263 entry or part of it): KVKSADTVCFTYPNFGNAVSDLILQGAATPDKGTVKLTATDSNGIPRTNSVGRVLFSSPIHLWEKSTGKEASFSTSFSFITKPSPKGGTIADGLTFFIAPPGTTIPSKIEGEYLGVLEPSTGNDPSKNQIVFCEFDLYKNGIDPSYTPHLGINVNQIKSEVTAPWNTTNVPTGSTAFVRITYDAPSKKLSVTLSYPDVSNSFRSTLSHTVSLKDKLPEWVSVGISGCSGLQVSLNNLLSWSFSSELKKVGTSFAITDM

CC(=O)N[C@H]1[C@@H](Oc2ccc([N+](=O)[O-])cc2)O[C@H](CO)[C@H](O)[C@@H]1O[C@@H]1O[C@H](CO)[C@H](O)[C@H](O)[C@H]1O [Galβ1-3GalNAcα-pNP, Galβ1-3 GalNAcα-pNP]
Ka ([1]; pNP derivatives (5 μM), FAC, 25 C, TBS pH 7.4): 90000 M⁻¹ | affinity of BLL for pNP glycosides (in words) [1]: remarkable affinity

CC(=O)N[C@H]1[C@@H](Oc2ccc([N+](=O)[O-])cc2)O[C@H](CO)[C@@H](O)[C@@H]1O [GlcNAcα-pNP]
affinity of BLL for pNP glycosides (in words) [1]: did not show remarkable affinity | Kd [2]: 7.14 µM | affinity of GSL-II for pNP glycosides (in words) [2]: strongest affinity

CC(=O)N[C@H]1[C@H](Oc2ccc([N+](=O)[O-])cc2)O[C@H](CO)[C@@H](O)[C@@H]1O [GlcNAcβ-pNP]
affinity of BLL for pNP glycosides (in words) [1]: did not show remarkable affinity | binding relative to that of the other anomer ([2]; GSL-II, pNP glycosides): 1/7 | affinity of GSL-II for pNP glycosides (in words) [2]: remarkable affinity

— patent US20090117599A1, “METHOD OF DETECTING SUGAR CHAINS HAVING GlcNAc TRANSFERRED BY GnT-V” (priority 2005, published 2009)
